{"source": "the supplement of paper PMC11061612", "assay_in_all_cases": "combination Emax (second highest fraction inhibited in the dose matrix, 72 h); higher = more inhibition; extreme values may be limits of the assay", "key": {"[1]": {"test_system": "NCI-H1838 (Lung Adenocarcinoma)", "how_it_was_run": "(§1)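 After 24 hours at 37°C and 5% CO2 in 1536-well plates, cells in DMEM/F12 or RPMI plus 10% FBS received two-drug dose matrices for 72 hours. Viability came from CellTiter-Glo 2.0 luminescence and was scaled as inhibition, anchored at 0 by vehicle wells and at 1 by blank wells. Combination Emax is taken as the second-highest inhibition in the matrix, and Bliss excess as the observed combination effect less EA + EB − EA·EB, with EA and EB the single-agent effects.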"}, "[2]": {"test_system": "G-401 (Other Solid Carcinomas)", "how_it_was_run": "as §1"}, "[3]": {"test_system": "NCI-H2122 (Lung Adenocarcinoma)", "how_it_was_run": "as §1"}, "[4]": {"test_system": "ALL-SIL (T-Lymphoblastic Leukemia)", "how_it_was_run": "as §1"}}, "data": [{"smiles": "CN(CCO)CC[C@H](CSc1ccccc1)Nc1ccc(S(=O)(=O)NC(=O)c2ccc(N3CCC([C@@H](O)c4ccccc4-c4ccc(Cl)cc4)CC3)cc2)cc1S(=O)(=O)C(F)(F)F", "note": "[AZD4320] + C1CN(CCC1(C(=O)N[C@@H](CCO)C2=CC=C(C=C2)Cl)N)C3=NC=NC4=C3C=CN4 [Capivasertib] (first compound max 1 µM, 7x7, partner max 3 µM)", "values": [{"measurement": "combination Emax", "setting": "[1]", "value": 0.178}, {"measurement": "combination Emax", "setting": "[2]", "value": 0.529}, {"measurement": "combination Emax", "setting": "[3]", "value": 0.411}, {"measurement": "combination Emax", "setting": "[4]", "value": 1}]}, {"smiles": "CN(CCO)CC[C@H](CSc1ccccc1)Nc1ccc(S(=O)(=O)NC(=O)c2ccc(N3CCC([C@@H](O)c4ccccc4-c4ccc(Cl)cc4)CC3)cc2)cc1S(=O)(=O)C(F)(F)F", "note": "[AZD4320] + CCN(CCO)CCCOc1ccc2c(Nc3cc(CC(=O)Nc4cccc(F)c4)[nH]n3)ncnc2c1 [AZD2811] (first compound max 1 µM, 7x7, partner max 1 µM)", "values": [{"measurement": "combination Emax", "setting": "[1]", "value": 0.216}, {"measurement": "combination Emax", "setting": "[2]", "value": 0.517}, {"measurement": "combination Emax", "setting": "[3]", "value": 0.794}, {"measurement": "combination Emax", "setting": "[4]", "value": 1}]}, {"smiles": "CN(CCO)CC[C@H](CSc1ccccc1)Nc1ccc(S(=O)(=O)NC(=O)c2ccc(N3CCC([C@@H](O)c4ccccc4-c4ccc(Cl)cc4)CC3)cc2)cc1S(=O)(=O)C(F)(F)F", "note": "[AZD4320] + C[C@@H]1COCCN1C2=NC(=NC(=C2)C3(CC3)[S@](=N)(=O)C)C4=C5C=CNC5=NC=C4 [AZD6738] (first compound max 1 µM, 7x7, partner max 10 µM)", "values": [{"measurement": "combination Emax", "setting": "[1]", "value": 0.694}, {"measurement": "combination Emax", "setting": "[2]", "value": 0.742}, {"measurement": "combination Emax", "setting": "[3]", "value": 0.972}, {"measurement": "combination Emax", "setting": "[4]", "value": 1}]}, {"smiles": "CN(CCO)CC[C@H](CSc1ccccc1)Nc1ccc(S(=O)(=O)NC(=O)c2ccc(N3CCC([C@@H](O)c4ccccc4-c4ccc(Cl)cc4)CC3)cc2)cc1S(=O)(=O)C(F)(F)F", "note": "[AZD4320] + C[C@@H](Nc1cc(F)cc(F)c1)c1cc(C(=O)N(C)C)cc2c(=O)cc(N3CCOCC3)oc12 [AZD8186] (first compound max 1 µM, 7x7, partner max 3 µM)", "values": [{"measurement": "combination Emax", "setting": "[1]", "value": 0.258}, {"measurement": "combination Emax", "setting": "[2]", "value": 0.661}, {"measurement": "combination Emax", "setting": "[3]", "value": 0.536}, {"measurement": "combination Emax", "setting": "[4]", "value": 1}]}, {"smiles": "CN(CCO)CC[C@H](CSc1ccccc1)Nc1ccc(S(=O)(=O)NC(=O)c2ccc(N3CCC([C@@H](O)c4ccccc4-c4ccc(Cl)cc4)CC3)cc2)cc1S(=O)(=O)C(F)(F)F", "note": "[AZD4320] + Cc1cc2ncnn2cc1Nc1ncc2c(n1)n(C1CCOCC1)c(=O)n2C [AZD7648] (first compound max 1 µM, 7x7, partner max 10 µM)", "values": [{"measurement": "combination Emax", "setting": "[1]", "value": 0.289}, {"measurement": "combination Emax", "setting": "[2]", "value": 0.424}, {"measurement": "combination Emax", "setting": "[3]", "value": 0.273}, {"measurement": "combination Emax", "setting": "[4]", "value": 1}]}, {"smiles": "CN(CCO)CC[C@H](CSc1ccccc1)Nc1ccc(S(=O)(=O)NC(=O)c2ccc(N3CCC([C@@H](O)c4ccccc4-c4ccc(Cl)cc4)CC3)cc2)cc1S(=O)(=O)C(F)(F)F", "note": "[AZD4320] + Cn1cnc2c(F)c(Nc3ccc(Br)cc3Cl)c(C(=O)NOCCO)cc21 [Selumetinib] (first compound max 1 µM, 7x7, partner max 3 µM)", "values": [{"measurement": "combination Emax", "setting": "[1]", "value": 0.209}, {"measurement": "combination Emax", "setting": "[2]", "value": 0.543}, {"measurement": "combination Emax", "setting": "[3]", "value": 0.8}, {"measurement": "combination Emax", "setting": "[4]", "value": 1}]}, {"smiles": "Cc1c2c(nn1C)CSCc1cc(n(C)n1)CSc1cc(c3ccccc3c1)OCCCc1c(C(=O)O)n(C)c3c-2c(Cl)ccc13", "note": "[AZD5991] + Cn1cnc2c(F)c(Nc3ccc(Br)cc3Cl)c(C(=O)NOCCO)cc21 [Selumetinib] (first compound max 1 µM, 7x7, partner max 3 µM)", "values": [{"measurement": "combination Emax", "setting": "[1]", "value": 0.511}, {"measurement": "combination Emax", "setting": "[2]", "value": 0.474}, {"measurement": "combination Emax", "setting": "[3]", "value": 0.935}, {"measurement": "combination Emax", "setting": "[4]", "value": 1}]}, {"smiles": "Cc1cc2ncnn2cc1Nc1ncc2c(n1)n(C1CCOCC1)c(=O)n2C", "note": "[AZD7648] + C=CCn1c(=O)c2cnc(Nc3ccc(N4CCN(C)CC4)cc3)nc2n1-c1cccc(C(C)(C)O)n1 [AZD1775] (first compound max 10 µM, partner max 1 µM)", "values": [{"measurement": "combination Emax", "setting": "[1]", "value": 0.569}, {"measurement": "combination Emax", "setting": "[2]", "value": 0.674}, {"measurement": "combination Emax", "setting": "[3]", "value": 0.766}, {"measurement": "combination Emax", "setting": "[4]", "value": 0.867}]}, {"smiles": "Cc1cc2ncnn2cc1Nc1ncc2c(n1)n(C1CCOCC1)c(=O)n2C", "note": "[AZD7648] + CCN(CCO)CCCOc1ccc2c(Nc3cc(CC(=O)Nc4cccc(F)c4)[nH]n3)ncnc2c1 [AZD2811] (first compound max 10 µM, 7x7, partner max 1 µM)", "values": [{"measurement": "combination Emax", "setting": "[1]", "value": 0.506}, {"measurement": "combination Emax", "setting": "[2]", "value": 0.51}, {"measurement": "combination Emax", "setting": "[3]", "value": 0.355}, {"measurement": "combination Emax", "setting": "[4]", "value": 0.97}]}, {"smiles": "Cc1cc2ncnn2cc1Nc1ncc2c(n1)n(C1CCOCC1)c(=O)n2C", "note": "[AZD7648] + CN(C)CCCOc1ccc(-c2ccc3ncc4c(c3c2)n(C2CCOCC2)c(=O)n4C)cn1 [AZD0156] (first compound max 10 µM, 7x7, partner max 1 µM)", "values": [{"measurement": "combination Emax", "setting": "[1]", "value": 0.371}, {"measurement": "combination Emax", "setting": "[2]", "value": 0.329}, {"measurement": "combination Emax", "setting": "[3]", "value": 0.253}, {"measurement": "combination Emax", "setting": "[4]", "value": 0.321}]}, {"smiles": "Cc1cc2ncnn2cc1Nc1ncc2c(n1)n(C1CCOCC1)c(=O)n2C", "note": "[AZD7648] + C[C@@H]1COCCN1C2=NC(=NC(=C2)C3(CC3)[S@](=N)(=O)C)C4=C5C=CNC5=NC=C4 [AZD6738] (first compound max 10 µM, 7x7, partner max 10 µM)", "values": [{"measurement": "combination Emax", "setting": "[1]", "value": 0.612}, {"measurement": "combination Emax", "setting": "[2]", "value": 0.379}, {"measurement": "combination Emax", "setting": "[3]", "value": 0.949}, {"measurement": "combination Emax", "setting": "[4]", "value": 0.925}]}, {"smiles": "Cc1cc2ncnn2cc1Nc1ncc2c(n1)n(C1CCOCC1)c(=O)n2C", "note": "[AZD7648] + O=C(c1cc(Cc2n[nH]c(=O)c3ccccc23)ccc1F)N1CCN(C(=O)C2CC2)CC1 [Olaparib] (first compound max 10 µM, 7x7, partner max 10 µM)", "values": [{"measurement": "combination Emax", "setting": "[1]", "value": 0.323}, {"measurement": "combination Emax", "setting": "[2]", "value": 0.434}, {"measurement": "combination Emax", "setting": "[3]", "value": 0.242}, {"measurement": "combination Emax", "setting": "[4]", "value": 0.315}]}, {"smiles": "Cc1nc(Nc2ncc(C(=O)Nc3c(C)cccc3Cl)s2)cc(N2CCN(CCO)CC2)n1", "note": "[Dasatinib] + CC(=O)Nc1cccc(-n2c(=O)n(C3CC3)c(=O)c3c(Nc4ccc(I)cc4F)n(C)c(=O)c(C)c32)c1 [Trametinib] (first compound max 2 µM, 7x7, partner max 1 µM)", "values": [{"measurement": "combination Emax", "setting": "[1]", "value": 0.367}, {"measurement": "combination Emax", "setting": "[2]", "value": 0.903}, {"measurement": "combination Emax", "setting": "[3]", "value": 0.942}, {"measurement": "combination Emax", "setting": "[4]", "value": 1}]}, {"smiles": "COc1cc2ncnc(Nc3ccc(F)c(Cl)c3)c2cc1OCCCN1CCOCC1", "note": "[Gefitinib] + CC(C)n1c(=O)n(C)c2cnc3cc(F)c(-c4ccc(OCCCN5CCCCC5)nc4)cc3c21 [AZD1390] (first compound max 10 µM, 7x7, partner max 0.3 µM)", "values": [{"measurement": "combination Emax", "setting": "[1]", "value": 0.19}, {"measurement": "combination Emax", "setting": "[2]", "value": 0.404}, {"measurement": "combination Emax", "setting": "[3]", "value": 0.626}, {"measurement": "combination Emax", "setting": "[4]", "value": 0.301}]}, {"smiles": "COc1cc2c(cc1OCCCCCOc1cc3c(cc1OC)C(=O)N1C=C(C)C[C@H]1C=N3)N=C[C@@H]1CC(C)=CN1C2=O", "note": "[SG3199] + O=C(c1cc(Cc2n[nH]c(=O)c3ccccc23)ccc1F)N1CCN(C(=O)C2CC2)CC1 [Olaparib] (first compound max 0.001 µM, 7x7, partner max 10 µM)", "values": [{"measurement": "combination Emax", "setting": "[1]", "value": 0.14}, {"measurement": "combination Emax", "setting": "[2]", "value": 0.32}, {"measurement": "combination Emax", "setting": "[3]", "value": 0.21}, {"measurement": "combination Emax", "setting": "[4]", "value": 0.337}]}, {"smiles": "C[C@@H](c1ccc2nccn2c1)n1nnc2ncc(-c3cnn(C)c3)nc21", "note": "[Savolitinib] + CC1(C)CCC(CN2CCN(c3ccc(C(=O)NS(=O)(=O)c4ccc(NCC5CCOCC5)c([N+](=O)[O-])c4)c(Oc4cnc5[nH]ccc5c4)c3)CC2)=C(c2ccc(Cl)cc2)C1 [Venetoclax] (first compound max 1 µM, 7x7, partner max 1 µM)", "values": [{"measurement": "combination Emax", "setting": "[1]", "value": 0.146}, {"measurement": "combination Emax", "setting": "[2]", "value": 0.104}, {"measurement": "combination Emax", "setting": "[3]", "value": 0.196}, {"measurement": "combination Emax", "setting": "[4]", "value": 0.675}]}, {"smiles": "C[C@@H](c1ccc2nccn2c1)n1nnc2ncc(-c3cnn(C)c3)nc21", "note": "[Savolitinib] + Cc1c2c(nn1C)CSCc1cc(n(C)n1)CSc1cc(c3ccccc3c1)OCCCc1c(C(=O)O)n(C)c3c-2c(Cl)ccc13 [AZD5991] (first compound max 1 µM, 7x7, partner max 1 µM)", "values": [{"measurement": "combination Emax", "setting": "[1]", "value": 0.28}, {"measurement": "combination Emax", "setting": "[2]", "value": 0.295}, {"measurement": "combination Emax", "setting": "[3]", "value": 0.64}, {"measurement": "combination Emax", "setting": "[4]", "value": 0.264}]}]}
